Like-named read-outs stand apart in the source and are kept apart here.
Assays:
[1] = test system: ATP-induced Ca2+ release in CHO-K1 cells; assay: ATP-induced calcium response in CHO-K1 cells; conditions: ATP 10 µM final concentration, Fluo-2
From the text: Using CHO-K1 cells, exactly the same experimental set-up as for the chemokine receptor expressing U87 cells was applied, essentially including the same fluorescent calcium dye (Fluo-2) for cell loading.

human CCR7 [2] = molecular target: T1, human CCR7 (Homo sapiens, UniProt P32248); assay: CCR7 competition binding assay with CCL19^AF647 (flow cytometry, whole cells); conditions: for inhibition of CCL19^AF647 binding / CCR7 affinity: result in words; for IC50: inhibition of CCL19^AF647 binding, Mean ± SD of four independent experiments
T1 construct: expressed in transfected cells
T1 sequence (P32248 25-378): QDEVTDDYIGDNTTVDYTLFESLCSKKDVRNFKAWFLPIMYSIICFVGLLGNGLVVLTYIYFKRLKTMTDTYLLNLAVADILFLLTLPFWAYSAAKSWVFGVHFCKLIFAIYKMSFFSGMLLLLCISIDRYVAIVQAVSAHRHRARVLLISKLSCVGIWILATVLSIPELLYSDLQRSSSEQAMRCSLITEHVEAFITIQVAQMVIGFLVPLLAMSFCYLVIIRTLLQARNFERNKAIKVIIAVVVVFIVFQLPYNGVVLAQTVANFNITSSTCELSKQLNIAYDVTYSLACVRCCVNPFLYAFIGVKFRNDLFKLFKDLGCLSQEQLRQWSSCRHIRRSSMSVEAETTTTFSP
Protocol: In brief, U87.CD4.CCR7 cells were pre-incubated with compound (at different concentrations) in 150 μL assay buffer [Hank’s balanced salt solution (HBSS), 20 mM HEPES and 0.5% Fetal Calf Serum] for 15 min at room temperature (RT) in the dark. Afterwards, 50 μL of CCL19^AF647 was added (25 ng/mL final concentration) and samples were incubated for another 30 min at RT, protected from light. Then, cells were washed twice with assay buffer and fixed in 1% paraformaldehyde in Dulbecco’s phosphate-buffered saline (DPBS).
Samples were immediately analyzed by flow cytometry (FACS Canto II, BD). Data were analysed using Flowjo. The percentage inhibition of CCL19^AF647 binding was calculated according to formula {1—[(MFIX–MFINC)/(MFIPC–MFINC)]} x 100, where MFIX is the mean fluorescence intensity (MFI) of the compound-treated sample, MFINC the MFI of the negative control (i.e., autofluorescence of untreated and unlabeled cells) and MFIPC the MFI of the positive control (i.e., cells exposed to CCL19^AF647 only). […] For each experiment the stain index (SI) was calculated as the ratio of the separation between MFIPC and MFINC, divided by two times the standard deviation of MFINC.

human CXCR4 = molecular target: T2, human CXCR4 (Homo sapiens, UniProt P61073); assay: CXCL12-induced calcium mobilization assay, U87.CD4 cells expressing CXCR4; format: cell-based; conditions: for effect on CXCR4 mediated calcium response: result in words
T2 construct: expressed in transfected cells
Protocol: U87.CD4 cells that stably express either human CCR7, CXCR2, CCR5 or CXCR4 were seeded (20,000 cells/well) in gelatin-coated black-walled polystyrene 96-well plates with clear bottom and incubated overnight at 37°C and 5% CO2. The next day, a fluorescent Ca^2+-sensitive dye solution (Fluo-2 AM) was prepared as described before ([Claes et al., 2018]). Culture medium was removed, and cells were incubated for 45 min at room temperature in the dark. Meanwhile, 96-well polypropylene plates containing 5-fold concentrated compound dilutions and 5-fold concentrated solution of chemokine ligands (CCL19, CXCL8, LD78-β, CXCL12, respectively; all purchased from PeproTech) were prepared for use with the FLIPR Tetra device (Molecular Devices) as described before ([Claes et al., 2018]). The antagonistic properties of the compounds were calculated based on their capacity to inhibit the Ca^2+ release induced by a fixed concentration of chemokine (i.e. 50 ng/mL final concentration for CCL19, CXCL8 and CXCL12 and 100 ng/ml for LD78-β), as described ([Claes et al., 2018]). Exactly the same protocol was used to record calcium responses in Chinese hamster ovary (CHO)-K1 cells, upon stimulation with adenosine triphosphate (ATP, purchased from Sigma).

human CXCR2 = molecular target: T3, human CXCR2 (Homo sapiens, UniProt P25025); assay: CXCL8-induced calcium mobilization assay, U87.CD4 cells expressing CXCR2; format: cell-based
T3 construct: expressed in transfected cells
T3 sequence (P25025 1-360): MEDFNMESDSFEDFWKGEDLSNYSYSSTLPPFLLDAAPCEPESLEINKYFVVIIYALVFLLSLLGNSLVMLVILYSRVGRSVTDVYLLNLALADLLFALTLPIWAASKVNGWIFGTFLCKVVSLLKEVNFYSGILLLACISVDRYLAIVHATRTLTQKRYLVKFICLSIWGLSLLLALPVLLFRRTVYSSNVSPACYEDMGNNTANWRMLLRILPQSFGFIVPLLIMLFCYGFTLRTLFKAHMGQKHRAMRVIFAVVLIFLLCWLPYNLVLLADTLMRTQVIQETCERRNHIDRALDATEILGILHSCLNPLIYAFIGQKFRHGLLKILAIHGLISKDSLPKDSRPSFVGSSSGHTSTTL
Protocol: (§1) U87.CD4 cells that stably express either human CCR7, CXCR2, CCR5 or CXCR4 were seeded (20,000 cells/well) in gelatin-coated black-walled polystyrene 96-well plates with clear bottom and incubated overnight at 37°C and 5% CO2. […] Culture medium was removed, and cells were incubated for 45 min at room temperature in the dark. […] Exactly the same protocol was used to record calcium responses in Chinese hamster ovary (CHO)-K1 cells, upon stimulation with adenosine triphosphate (ATP, purchased from Sigma).

human CCR5 = molecular target: T4, human CCR5 (Homo sapiens, UniProt P51681); assay: cell-based
T4 construct: expressed in transfected cells
Protocol: as §1

human CCR7 [3] = molecular target: T1, human CCR7; assay: CCL19-induced calcium mobilization assay, U87.CD4 cells expressing CCR7; format: cell-based; conditions: for CCR7 antagonism in calcium mobilization assay: CCL19-induced, result in words; for Decoy – 0 Active – 1: classification of tested compounds as decoy or active
Outline: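 U87.CD4 cells stably expressing human CCR7, CXCR2 or CCR5 were seeded at 20,000 cells/well and incubated overnight at 37°C and 5% CO2. Cells were then incubated for 45 min at room temperature in the dark before calcium responses were recorded. CCR7 responses were induced with CCL19 and CXCR2 responses with CXCL8.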

CCR7 = test system: CCR7; set-up: method as in Jaeger et al., 2019; conditions: result in words; ref Jaeger et al., 2019; cited from earlier work
human or murine CCR7 = test system: human or murine CCR7; set-up: method as in Hull-Ryde et al., 2018; conditions: ref Hull-Ryde et al., 2018, cited from earlier work; for IC50: read-out: IC50, β-arrestin recruitment

T2 sequence (P61073 whole entry): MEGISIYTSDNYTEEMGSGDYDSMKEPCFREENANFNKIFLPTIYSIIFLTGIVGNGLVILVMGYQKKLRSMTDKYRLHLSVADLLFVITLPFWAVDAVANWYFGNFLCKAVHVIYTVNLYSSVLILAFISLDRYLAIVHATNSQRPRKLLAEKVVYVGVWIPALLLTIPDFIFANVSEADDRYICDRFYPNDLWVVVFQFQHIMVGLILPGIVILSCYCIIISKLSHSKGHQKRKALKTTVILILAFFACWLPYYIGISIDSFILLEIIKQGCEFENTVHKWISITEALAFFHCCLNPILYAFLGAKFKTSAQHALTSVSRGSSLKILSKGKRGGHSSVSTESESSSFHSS
T4 sequence (P51681 whole entry): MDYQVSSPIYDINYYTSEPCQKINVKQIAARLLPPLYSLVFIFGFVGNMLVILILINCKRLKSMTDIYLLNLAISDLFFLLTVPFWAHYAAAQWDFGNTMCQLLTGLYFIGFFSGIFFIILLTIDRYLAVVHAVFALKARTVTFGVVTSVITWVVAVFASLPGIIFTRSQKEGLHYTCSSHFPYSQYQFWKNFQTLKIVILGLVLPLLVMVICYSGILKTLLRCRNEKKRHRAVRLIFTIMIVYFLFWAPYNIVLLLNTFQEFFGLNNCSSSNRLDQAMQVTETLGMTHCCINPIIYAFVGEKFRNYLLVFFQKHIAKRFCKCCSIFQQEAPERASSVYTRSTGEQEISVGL

SMILES | inhibition of CCL19^AF647 binding / CCR7 affinity (human CCR7 [2]) | thermal stabilization of CCR7 (CCR7) | IC50 (human CCR7 [2]) [µM] | IC50 (human CCR7 [3]) [µM] | CCR7 antagonism in calcium mobilization assay (human CCR7 [3]) | Decoy – 0 Active – 1 (human CCR7 [3]) | effect on CXCR4 mediated calcium response (human CXCR4) | further results
FC(F)(F)c1cc(NC(=S)Nc2cc(C(F)(F)F)cc(C(F)(F)F)c2)cc(C(F)(F)F)c1 [C040, S=C(NC1=CC(C(F)(F)F)=CC(C(F)(F)F)=C1)NC2=CC(C(F)(F)F)=CC(C(F)(F)F)=C2] | completely devoid of activity |  |  |  |  |  |  | inhibition of calcium response induced by ATP [1]: dose-dependently inhibit; activity in CCR7 competition binding assay (human CCR7 [2]; highest concentration tested (25 µM)): inactive; IC50 (human CXCR4; Mean ± SD of at least three independent experiments, read-out: IC50, CXCL12-CXCR4 Ca2+ response): 3 to 18 µM; IC50 (human CXCR2; Mean ± SD of at least three independent experiments, read-out: IC50, CXCL8-CXCR2 Ca2+ response): 3 to 18 µM; IC50 (human CCR5; Mean ± SD of at least three independent experiments, read-out: IC50, LD78-β-CCR5 Ca2+ response): 3 to 18 µM; IC50 [μM] block CCL19 induced calcium signaling (human CCR7 [3]; CCL19-induced calcium signaling): assay interference; IC50 (human CCR7 [3]; inhibition of CCL19 induced intracellular calcium flux, Mean ± SD of at least three independent experiments, read-out: Calcium assay IC50): 3 to 18 µM
COCCNc1c(Nc2cccc(C#N)c2)c(=O)c1=O [CS-2, 3-((2-((2-Methoxyethyl)amino)-3,4-dioxocyclobut-1-en-1-yl)amino)benzonitrile, reference compound] | did not show any CCR7 affinity | hits in the thermofluor stability assay, albeit less potent than cmp2105 and navarixin | > 50 | > 50 | inactive | 0 |  | 
CCOC(=O)N1CCC(Nc2c(NCCOC)c(=O)c2=O)CC1 [CS-3, Ethyl 4-((2-((2-methoxyethyl)amino)-3,4-dioxocyclobut-1-en-1-yl)amino)piperidine-1-carboxylate, reference compound] | did not show any CCR7 affinity | hits in the thermofluor stability assay, albeit less potent than cmp2105 and navarixin | > 50 | > 50 | inactive | 0 |  | 
Cc1ccc([C@@H](NC2=NS(=O)(=O)N=C2Nc2ccc(C)c(C(=O)N(C)C)c2O)C(C)(C)C)o1 [Cmp2105, reference compound] |  |  |  |  |  |  | no (or only very limited) effect | inhibition of CXCR2 mediated calcium mobilization (human CXCR2; result in words): inhibited
CC[C@@H](Nc1c(Nc2cccc(C(=O)N(C)C)c2O)c(=O)c1=O)c1ccc(C)o1 [Navarixin] |  |  |  |  |  |  | no (or only very limited) effect | effect on CCR5 mediated calcium response (human CCR5; result in words): no (or only very limited) effect
CC(C)CCC[C@@H](C)[C@H]1CC[C@H]2[C@@H]3CC[C@H]4C[C@@H](CCC=C(c5cc(Cl)c(O)c(C(=O)O)c5)c5cc(Cl)c(O)c(C(=O)O)c5)CC[C@]4(C)[C@H]3CC[C@]12C [cosalane] |  |  |  |  |  |  |  | IC50 (human or murine CCR7; CCL19 used as the natural CCR7 ligand): 0.2 µM; IC50 (human or murine CCR7; CCL21 used as the agonist): 2.7 µM; activity against human versus murine CCR7 (human or murine CCR7; result in words): nearly identical activity against the human and murine CCR7 orthologues
